Patent US20240317706A1, “COMPOUNDS THAT MEDIATE PROTEIN DEGRADATION AND METHODS OF USE THEREOF” (Monte Rosa Therapeutics, Inc., priority 2021, published 2024)

Columns and labels:
CDK2 = molecular target: T1, CDK2 (Homo sapiens, UniProt P24941); assay: NanoBiT assay (CDK2 degradation); format: cell-based; settings: 24 hours; for Dmax: HEK293, HEK293 clonal line with CRISPR KI HiBiT tag on CDK2, Endurazine live cell substrate
T1 construct: HEK293 clonal lines with CRISPR KI HiBiT tag on CDK2 proteins; host or cells: HEK293 clonal line, CRISPR knock-in HiBiT-CDK2, stably expressing LgBiT
In short: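 HEK293 cells with endogenous HiBiT-tagged CDK2 knock-in and stable LgBiT, with Endurazine live-cell substrate; cells were dosed with compound (30 μM stock) for 24 h at 37 °C, then luminescence was read. Response normalised to plate negative/positive controls and fitted to a 3-parameter logistic (hillslope=1) for EC50.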

CRBN-DDB1 = CRBN-DDB1 (Homo sapiens, UniProt Q96SW2); assay: Compound binding to CRBN by HTRF assay; settings: CRBN-DDB1 2.5 nM, Cy5-Thalidomide 100 nM, 30 min; Ki from geometric mean IC50 by Cheng-Prustoff transformation
Chain of CRBN-DDB1 (Q96SW2 whole entry): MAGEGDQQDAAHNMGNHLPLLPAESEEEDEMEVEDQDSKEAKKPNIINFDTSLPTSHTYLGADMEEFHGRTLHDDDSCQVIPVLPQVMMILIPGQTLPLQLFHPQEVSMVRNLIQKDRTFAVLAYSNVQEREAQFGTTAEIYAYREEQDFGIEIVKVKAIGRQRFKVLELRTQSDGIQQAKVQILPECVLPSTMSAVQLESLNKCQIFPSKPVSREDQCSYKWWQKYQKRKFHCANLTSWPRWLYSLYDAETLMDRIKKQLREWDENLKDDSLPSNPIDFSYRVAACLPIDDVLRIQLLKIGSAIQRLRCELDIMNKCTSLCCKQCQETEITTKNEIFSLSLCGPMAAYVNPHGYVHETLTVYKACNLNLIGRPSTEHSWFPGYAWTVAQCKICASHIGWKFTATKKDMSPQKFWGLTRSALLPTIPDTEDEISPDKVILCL
Chain of CRBN-DDB1 (Q16531 whole entry partner): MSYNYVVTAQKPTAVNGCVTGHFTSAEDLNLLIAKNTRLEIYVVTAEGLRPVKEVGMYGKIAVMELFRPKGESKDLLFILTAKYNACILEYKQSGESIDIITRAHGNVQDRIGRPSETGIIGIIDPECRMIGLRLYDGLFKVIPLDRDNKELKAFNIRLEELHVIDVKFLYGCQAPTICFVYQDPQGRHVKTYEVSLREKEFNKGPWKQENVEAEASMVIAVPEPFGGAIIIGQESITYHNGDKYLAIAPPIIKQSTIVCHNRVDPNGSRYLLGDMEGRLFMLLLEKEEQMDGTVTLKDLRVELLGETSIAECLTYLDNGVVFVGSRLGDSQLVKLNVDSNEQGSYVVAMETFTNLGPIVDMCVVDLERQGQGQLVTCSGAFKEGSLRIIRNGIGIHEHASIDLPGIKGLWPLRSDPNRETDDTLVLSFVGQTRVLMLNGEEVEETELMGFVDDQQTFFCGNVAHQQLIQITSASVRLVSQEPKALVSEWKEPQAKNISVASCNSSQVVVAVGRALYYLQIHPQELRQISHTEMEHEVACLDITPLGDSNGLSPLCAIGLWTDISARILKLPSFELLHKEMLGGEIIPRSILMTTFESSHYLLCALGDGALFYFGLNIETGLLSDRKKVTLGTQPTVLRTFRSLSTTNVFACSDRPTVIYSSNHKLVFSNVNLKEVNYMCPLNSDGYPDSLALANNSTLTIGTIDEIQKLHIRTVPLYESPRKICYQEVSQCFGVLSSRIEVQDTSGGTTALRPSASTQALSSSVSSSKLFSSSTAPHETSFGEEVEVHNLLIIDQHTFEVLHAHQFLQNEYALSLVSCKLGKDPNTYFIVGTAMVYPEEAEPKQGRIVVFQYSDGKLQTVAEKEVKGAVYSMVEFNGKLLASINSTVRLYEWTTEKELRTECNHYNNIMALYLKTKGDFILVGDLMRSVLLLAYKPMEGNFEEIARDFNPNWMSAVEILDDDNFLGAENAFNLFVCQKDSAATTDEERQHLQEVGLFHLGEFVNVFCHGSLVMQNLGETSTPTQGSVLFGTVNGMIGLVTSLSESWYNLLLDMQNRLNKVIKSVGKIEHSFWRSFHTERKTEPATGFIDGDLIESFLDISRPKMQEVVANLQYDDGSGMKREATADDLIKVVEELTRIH
Method: Compound activity was monitored in a Homogenous Time-Resolved Fluorescence (HTRF) assay using 1-[5-({2-[2-(2-{[2-(2,6-dioxopiperidin-3-yl)-1,3-dioxo-2,3-dihydro-1H-isoindol-4-yl]oxy}acetamido)ethoxy]ethyl}carbamoyl)pentyl]-3,3-dimethyl-2-[(1E,3E)-5-[(2E)-1,3,3-trimethyl-5-sulfo-2,3-dihydro-1H-indol-2-ylidene]penta-1,3-dien-1-yl]-3H-indol-1-ium-5-sulfonate as a fluorescent probe. Biochemical assays were conducted in Greiner white 384 well HiBase plates (Cat. No 784075-25) in 10 μL total volume. A one pot detection solution of CRBN-DDB1 (2.5 nM), Anti-His Terbium Cryptate Gold (1×, PerkinElmer Cat. #: 61HI2TLB), and Cy5-Thalidomide (100 nM, Tenova Cat.: T52461) was prepared in 20 mM HEPES, 20 mM NaCl, 0.2 mM TCEP, 0.2 mM EDTA, and 0.005% Tween20 was dispensed to each assay plate. Compounds were stored in dry, ambient temperatures at 10 mM. A 10-point, 1:3 dilution series was prepared from 10 mM stock concentrations in Echo-compatible LDV plates. 10 nL of each compound dilution series was dispensed into assays wells using an Echo 650 (Labcyte inc. USA). 10 nL of 10 mM Lenalidomide was transferred into the active-control wells for the assay and 10 nL of DMSO was transferred into the neutral-control wells. The assay was then allowed to incubate for 30 min at ambient temperature after transferring compound. Plate measurements were taken on a Pherastar FSX (BMG Labtech, Germany) using the HTRF Red filter (Ex. 337 nm, em1: 620 nm, em2: 665 nm) (Flashes: 50, Integration time: 60-400 us, Z-height: 10 mm, Ratio-multiplier: 10,000). The HTRF signal was then subsequently normalized to the neutral and active controls. Analysis and IC50 values were derived using KNIME analytics (KNIME Zurich) transformation and fitting within Collaborative Drug Discovery (Collaborative Drug Discovery USA). Ki was derived from the geometric mean of the IC50 values using the Cheng-Prustoff transformation.

Row | Dmax (CDK2) [%] | Ki (CRBN-DDB1) [nM] | SMILES | CDK2 NanoBiT Dmax (%) (CDK2; HEK293 clonal line with CRISPR KI HiBiT tag on CDK2, Endurazine live cell substrate)
1 | 10 to 50 | ≤ 100 | O=C1CCC(N2Cc3ccc(CNC(=S)OCC4CC5(CCC5)C4)cc3C2=O)C(=O)N1 (stereo not shown) [Compound 111, O-(spiro[3.3]heptan-2-ylmethyl) ((2-(2,6-dioxopiperidin-3-yl)-3-oxoisoindolin-5-yl)methyl)carbamothioate] | 
2 | 50 to 80 | ≤ 100 | O=C1CCC(N2Cc3c(Br)cc(CNc4nnc(C5CC6(CCC6)C5)o4)c(O)c3C2=O)C(=O)N1 (stereo not shown) [Compound 137, 3-(4-bromo-7-hydroxy-1-oxo-6-(((5-(spiro[3.3]heptan-2-yl)-1,3,4-oxadiazol-2-yl)amino)methyl)isoindolin-2-yl)piperidine-2,6-dione] | 
3 | 10 to 50 | 100 to 1000 | CC(C)(C)C12CC(COC(=O)NCc3ccc4c(c3)C(=O)N(C3CCC(=O)NC3=O)C4)(C1)C2 (stereo not shown) [Compound 131, (3-(tert-butyl)bicyclo[1.1.1]pentan-1-yl)methyl((2-(2,6-dioxopiperidin-3-yl)-3-oxoisoindolin-5-yl)methyl)carbamate] | 
4 | 50 to 80 | 100 to 1000 | O=C1CCC(N2Cc3ccc(CNC(=O)OCC4CC5(CCCC5)C4)cc3C2=O)C(=O)N1 (stereo not shown) [Compound 115, spiro[3.4]octan-2-ylmethyl ((2-(2,6-dioxopiperidin-3-yl)-3-oxoisoindolin-5-yl)methyl)carbamate] | 
5 | 10 to 50 | ≤ 100 | CC1(COC(=O)NCc2ccc3c(c2)C(=O)N(C2CCC(=O)NC2=O)C3)CS(=O)(=O)C1 (stereo not shown) [Compound 81, (3-methyl-1,1-dioxo-1lambda6-thietan-3-yl)methyl N-{[2-(2,6-dioxopiperidin-3-yl)-3-oxo-2,3-dihydro-1H-isoindol-5-yl]methyl}carbamate] | 
6 | 10 to 50 | 100 to 1000 | O=C1CCC(N2Cc3ccc(CNC(=O)OCC4CC5(CC5)C4)cc3C2=O)C(=O)N1 (stereo not shown) [Compound 126, spiro[2.3]hexan-5-ylmethyl ((2-(2,6-dioxopiperidin-3-yl)-3-oxoisoindolin-5-yl)methyl)carbamate] | 
7 | > 80 | 100 to 1000 | O=C1CCC(N2C(=O)c3ccc(CNC(=O)OCC4CC5(CCC5)C4)cc3C2=O)C(=O)N1 (stereo not shown) [Compound 117, spiro[3.3]heptan-2-ylmethyl ((2-(2,6-dioxopiperidin-3-yl)-1,3-dioxoisoindolin-5-yl)methyl)carbamate] | 
8 | 10 to 50 | 100 to 1000 | C[C@H]1C[C@H](COC(=O)NCc2ccc3c(c2)C(=O)N(C2CCC(=O)NC2=O)C3)C1 (stereo partly shown) [Compound 119] | 
9 | 50 to 80 | 100 to 1000 | O=C1CCC(N2Cc3ccc(CNC(=O)OC(c4ccccc4)C4CC5(CCC5)C4)cc3C2=O)C(=O)N1 (stereo not shown) [Compound 107, phenyl(spiro[3.3]heptan-2-yl)methyl ((2-(2,6-dioxopiperidin-3-yl)-3-oxoisoindolin-5-yl)methyl)carbamate] | 
10 | 10 to 50 | 100 to 1000 | C[C@H]1C[C@@H](COC(=O)NCc2ccc3c(c2)C(=O)N(C2CCC(=O)NC2=O)C3)C1 (stereo partly shown) [Compound 120, ((1s,3s)-3-methylcyclobutyl)methyl ((2-(2,6-dioxopiperidin-3-yl)-3-oxoisoindolin-5-yl)methyl)carbamate] | 
11 | 10 to 50 | 100 to 1000 | O=C1CCC(N2Cc3cc(F)c(CNC(=O)OCC4CC5(CCC5)C4)cc3C2=O)C(=O)N1 (stereo not shown) [Compound 123, spiro[3.3]heptan-2-ylmethyl ((2-(2,6-dioxopiperidin-3-yl)-6-fluoro-3-oxoisoindolin-5-yl)methyl)carbamate] | 
12 | 50 to 80 | 100 to 1000 | O=C1CCC(N2Cc3c(F)cc(CNc4nnc(C5CC6(CCC6)C5)o4)cc3C2=O)C(=O)N1 (stereo not shown) [Compound 142, 3-(4-fluoro-1-oxo-6-(((5-(spiro[3.3]heptan-2-yl)-1,3,4-oxadiazol-2-yl)amino)methyl)isoindolin-2-yl)piperidine-2,6-dione] | 
13 | 10 to 50 | 100 to 1000 | CC(C)[C@@H]1C[C@H]1COC(=O)NCc1ccc2c(c1)C(=O)N(C1CCC(=O)NC1=O)C2 (stereo partly drawn) [Compound 116, ((1R,2S)-2-isopropylcyclopropyl)methyl ((2-(2,6-dioxopiperidin-3-yl)-3-oxoisoindolin-5-yl)methyl)carbamate] | 
14 | 50 to 80 | ≤ 100 | O=C1CCC(N2Cc3c(Cl)cc(CNC(=O)OCC4CC5(CCC5)C4)cc3C2=O)C(=O)N1 (stereo not shown) [Compound 104, spiro[3.3]heptan-2-ylmethyl ((7-chloro-2-(2,6-dioxopiperidin-3-yl)-3-oxoisoindolin-5-yl)methyl)carbamate] | 
15 | 10 to 50 | 100 to 1000 | O=C1CCC(N2Cc3ccc(CNC(=O)OC(Cc4ccccc4)C4CC5(CCC5)C4)cc3C2=O)C(=O)N1 (stereo not shown) [Compound 109, 2-phenyl-1-(spiro[3.3]heptan-2-yl)ethyl ((2-(2,6-dioxopiperidin-3-yl)-3-oxoisoindolin-5-yl)methyl)carbamate] | 
16 | ≤ 10 | 100 to 1000 | CS(=O)(=O)N1CC(COC(=O)NCc2ccc3c(c2)C(=O)N(C2CCC(=O)NC2=O)C3)C1 (stereo not shown) [Compound 91, (1-methanesulfonylazetidin-3-yl)methyl N-{[2-(2,6-dioxopiperidin-3-yl)-3-oxo-2,3-dihydro-1H-isoindol-5-yl]methyl}carbamate] | 
17 | 10 to 50 | 100 to 1000 | O=C1CCC(N2Cc3ccc(CNC(=O)OCC4(C5CC5)CC4)cc3C2=O)C(=O)N1 (stereo not shown) [Compound 77, {[1,1′-bi(cyclopropane)]-1-yl}methyl N-{[2-(2,6-dioxopiperidin-3-yl)-3-oxo-2,3-dihydro-1H-isoindol-5-yl]methyl}carbamate] | 
18 | 50 to 80 | 100 to 1000 | O=C1CCC(N2Cc3ccc(CNc4nnc(C5CC6(CCC6)C5)o4)cc3C2=O)C(=O)N1 (stereo not shown) [Compound 136, 3-(1-oxo-6-(((5-(spiro[3.3]heptan-2-yl)-1,3,4-oxadiazol-2-yl)amino)methyl)isoindolin-2-yl)piperidine-2,6-dione] | 
19 | 10 to 50 | 100 to 1000 | CC(OC(=O)NCc1ccc2c(c1)C(=O)N(C1CCC(=O)NC1=O)C2)C1CC2(CCC2)C1 (stereo not shown) [Compound 113, 1-(spiro[3.3]heptan-2-yl)ethyl ((2-(2,6-dioxopiperidin-3-yl)-3-oxoisoindolin-5-yl)methyl)carbamate] | 
20 | 10 to 50 | 100 to 1000 | O=C1CCC(N2Cc3ccc(CNC(=O)OC(C4CC4)C4CC5(CCC5)C4)cc3C2=O)C(=O)N1 (stereo not shown) [Compound 108, cyclopropyl(spiro[3.3]heptan-2-yl)methyl ((2-(2,6-dioxopiperidin-3-yl)-3-oxoisoindolin-5-yl)methyl)carbamate] | 
21 | 10 to 50 | ≤ 100 | COc1c(CNC(=O)OCC2CC3(CCC3)C2)ccc2c1C(=O)N(C1CCC(=O)NC1=O)C2 (stereo not shown) [Compound 102, spiro[3.3]heptan-2-ylmethyl ((2-(2,6-dioxopiperidin-3-yl)-4-methoxy-3-oxoisoindolin-5-yl)methyl)carbamate] | 
22 | 10 to 50 | 100 to 1000 | CN(C)C(=O)N1CC(OC(=O)NCc2ccc3c(c2)C(=O)N(C2CCC(=O)NC2=O)C3)C1 (stereo not shown) [Compound 112, 1-(dimethylcarbamoyl)azetidin-3-yl ((2-(2,6-dioxopiperidin-3-yl)-3-oxoisoindolin-5-yl)methyl)carbamate] | 
23 |  | 100 to 1000 | O=C1CCC(N2Cc3c(cc(CNc4nnc(C5CC6(CCC6)C5)o4)cc3C(F)(F)F)C2=O)C(=O)N1 (stereo not shown) [Compound 139, 3-(1-oxo-6-(((5-(spiro[3.3]heptan-2-yl)-1,3,4-oxadiazol-2-yl)amino)methyl)-4-(trifluoromethyl)isoindolin-2-yl)piperidine-2,6-dione] | C (C represents a Dmax value of >50% and ≤80%)
